Reference: patent US8741930B2 (Bridge Pharma, Inc., priority 2008, dated 2014)
Read-outs that look alike come from different tables or passages of the source.

Assays:
tear flow [1] = assay: Tear flow, phenol red thread (modified Schirmer's test) after ocular instillation; format: in vivo, mice; conditions: for Tear flow, length of red area of thread, Mean ± SEM: 0.07% solution, 0.05 mL twice daily, 45 min after 5th instillation, N=8; for Effect on tear flow: topical administration to the eyes of laboratory animals
Procedure: All instillations were performed twice daily and consisted of 0.05 mL. A total of five instillations were administered. Tear measurements were performed 45 minutes after the first drug instillation on Day 3, by carefully placing the bent end of a Zone-Quick phenol red impregnated cotton thread (FCI Ophthalmics, Pembrooke, Mass.) at the intercanthus of the eye and holding it in place for 30 seconds. After removal, the length of the red area of the thread was measured in millimeters. During tear measurements, all animals were lightly anesthetized with isoflurane in order to reduce movement and stress.

histamine wheal response = assay: Antihistaminic activity in vivo: histamine-induced wheal after oral dosing; design: species or system rats
Procedure: Male rats (150-200 g) were starved overnight and twelve hours after dorsal depilation, the animals were orally pretreated with the test compound(s). Four dorsal test areas were marked with permanent ink, carefully avoiding the area closest to the spine. Exactly 60 min after the dosing of the test compound, two intradermal injections of histamine (50 microliter; 1.0 mg/ml of histamine di-HCl) were performed, one on each side on the back of the animal. Two intradermal injections of the vehicle for the histamine solution were also performed. Evans blue dye (20 mg/kg) was injected iv 1 minute prior to the intra-dermal injections of histamine and the histamine vehicle. Twenty minutes were allowed for the wheal response to fully develop, whereupon the animals were euthanized and the dorsal skin containing the intradermal wheals were deflected. The blue spotted areas were measured in square millimeters and the duplicate vehicle wheal responses were averaged. In vehicle-treated animals, the wheal area, on average, was increased by histamine by 98 mm^2. The inhibition was calculated in percent difference from this baseline value.

Maximal solubility = format: physicochemical
Text: Ocular formulations of norketotifen to be used by individuals suffering from a dry eye syndrome may be hypotonic or isotonic. Thus, the acceptable osmolality may range from about 150 mOsm to about 350 mOsm.

[2] = molecular target: muscarinic receptors (antimuscarinic activity); conditions: Wolff et al. 2007; cited from earlier work
tear flow [3] = conditions: U.S. Pat. No. 7,247,623; cited from earlier work

## CN1CCC(=C2c3ccccc3CC(=O)c3sccc32)CC1.O=C(O)/C=C/C(=O)O [KETOTIFEN HF, reference compound]
Tear flow [1]
  Tear flow, length of red area of thread, Mean ± SEM: 4.25 ± 0.250 mm

## CN1CCC(=C2c3ccccc3CC(=O)c3sccc32)CC1 [Ketotifen, reference compound]
Tear flow [1]
  Effect on tear flow: not to increase tear flow

## O=C1Cc2ccccc2C(=C2CCNCC2)c2ccsc21 (racemic) [Norketotifen]
Tear flow [1]; 45 minutes after the 5th treatment
  Statistical significance of effect in modified Schirmer's test: statistically significant effects
Tear flow [1]
  Effect on tear flow: increase tear flow
Histamine wheal response; Rattus norvegicus, 1 mg/kg oral, versus vehicle histamine effect
  inhibition at 1 mg/kg: 6%
Histamine wheal response; Rattus norvegicus, 10 mg/kg oral, versus vehicle histamine effect
  inhibition at 10 mg/kg: 83%
Histamine wheal response; rats, oral
  Absorption after oral administration: well absorbed

## O=C(O)/C=C/C(=O)O.O=C1Cc2ccccc2C(=C2CCNCC2)c2ccsc21 [norketotifen hydrogen fumarate]
Maximal solubility; in saline
  Maximal solubility: 4.5 mg/mL
Maximal solubility; in water
  Maximal solubility: 2.7 mg/mL
Tear flow [1]
  Tear flow, length of red area of thread, Mean ± SEM: 4.62 ± 0.263 mm

## CN(C)CC/C=C1/c2ccccc2COc2ccc(CC(=O)O)cc21 [olopatadine]
[2]
  IC50: 1740 nM
Tear flow [3]
  Effect on tear flow: reduce tear flow
